{"source": "patent US10208089B2", "about": "“Modulation of complement activity” (priority 2014, dated 2019)", "note": "Starred links: 1 amine or outer side, 2 acyl side, 3 side chain; linkers in the order of their positions; H or OH if unused. Positions of bridges follow the written chain, without caps; N, C: chain ends. Non-standard residues stand in square brackets, D forms with d. Residues, ends and D or L forms follow the SMILES beside them. Ala(1H-tetrazol-5-yl) = N[C@@H](Cc1nnn[nH]1)C(=O)O; Trp(7-aza) = N[C@@H](Cc1c[nH]c2ncccc12)C(=O)O; Trp(1-Me) = Cn1cc(C[C@H](N)C(=O)O)c2ccccc21; mXylylene = c1cc(C[*:1])cc(C[*:2])c1; Phg = N[C@H](C(=O)O)c1ccccc1; Tle = CC(C)(C)[C@H](N)C(=O)O; NMeS = CN[C@@H](CO)C(=O)O; Nva = CCC[C@H](N)C(=O)O; Sar = CNCC(=O)O", "data": [{"molecular_target": "C5 (Homo sapiens, UniProt P01031)", "sequence (P01031 19-1676)": "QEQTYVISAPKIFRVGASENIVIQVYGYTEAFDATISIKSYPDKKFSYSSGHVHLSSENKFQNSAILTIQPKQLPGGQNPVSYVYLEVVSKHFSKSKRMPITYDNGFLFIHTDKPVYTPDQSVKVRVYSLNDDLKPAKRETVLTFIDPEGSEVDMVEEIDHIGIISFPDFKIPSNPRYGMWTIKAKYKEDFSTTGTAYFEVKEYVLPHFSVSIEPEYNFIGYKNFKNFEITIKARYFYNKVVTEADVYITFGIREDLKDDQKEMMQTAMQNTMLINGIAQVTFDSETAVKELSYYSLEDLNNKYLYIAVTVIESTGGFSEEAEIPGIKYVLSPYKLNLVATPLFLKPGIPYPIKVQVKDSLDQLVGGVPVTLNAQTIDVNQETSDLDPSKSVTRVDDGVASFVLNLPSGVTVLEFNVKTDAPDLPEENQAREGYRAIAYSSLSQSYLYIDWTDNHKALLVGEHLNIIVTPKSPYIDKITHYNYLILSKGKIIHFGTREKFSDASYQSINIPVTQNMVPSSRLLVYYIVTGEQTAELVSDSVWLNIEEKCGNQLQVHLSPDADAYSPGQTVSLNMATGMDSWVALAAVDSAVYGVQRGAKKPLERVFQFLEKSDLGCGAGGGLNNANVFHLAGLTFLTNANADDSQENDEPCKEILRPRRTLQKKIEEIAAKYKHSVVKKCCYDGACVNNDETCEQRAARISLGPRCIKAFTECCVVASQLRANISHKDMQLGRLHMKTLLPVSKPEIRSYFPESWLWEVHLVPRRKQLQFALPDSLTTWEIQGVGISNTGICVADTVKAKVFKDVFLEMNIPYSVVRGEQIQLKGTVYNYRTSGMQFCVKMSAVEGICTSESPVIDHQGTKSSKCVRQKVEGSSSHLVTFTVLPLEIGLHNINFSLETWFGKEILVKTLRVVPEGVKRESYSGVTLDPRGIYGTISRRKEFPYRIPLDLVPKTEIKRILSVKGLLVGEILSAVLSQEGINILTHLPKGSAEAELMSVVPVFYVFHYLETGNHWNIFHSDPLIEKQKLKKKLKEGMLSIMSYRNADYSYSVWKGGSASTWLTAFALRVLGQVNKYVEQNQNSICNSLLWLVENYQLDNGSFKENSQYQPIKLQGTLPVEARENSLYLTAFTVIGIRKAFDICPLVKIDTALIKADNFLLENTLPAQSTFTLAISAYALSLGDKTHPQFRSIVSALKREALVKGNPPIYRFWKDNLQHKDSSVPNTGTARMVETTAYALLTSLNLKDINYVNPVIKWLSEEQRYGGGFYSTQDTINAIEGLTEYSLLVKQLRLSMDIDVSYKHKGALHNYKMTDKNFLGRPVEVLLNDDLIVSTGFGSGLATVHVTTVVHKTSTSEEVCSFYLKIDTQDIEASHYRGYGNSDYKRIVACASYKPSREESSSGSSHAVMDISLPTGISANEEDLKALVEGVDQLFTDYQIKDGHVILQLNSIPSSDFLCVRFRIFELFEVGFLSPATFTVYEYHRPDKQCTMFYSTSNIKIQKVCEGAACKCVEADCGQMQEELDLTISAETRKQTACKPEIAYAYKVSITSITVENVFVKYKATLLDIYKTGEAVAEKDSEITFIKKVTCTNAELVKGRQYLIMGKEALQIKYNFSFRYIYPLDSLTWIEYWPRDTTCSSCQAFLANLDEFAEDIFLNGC", "assay": "Human hemolysis assay (RBC lysis assay using complete human sera)", "type": "cell-based", "set-up": "with complete human sera (Complement Technology, Tyler Tex.) and polypeptides; tissue Complement Technology, Tyler Tex; host or cells: complete human serum", "settings": "7-azatryptophan variant polypeptides of R3002; inhibition of red blood cell lysis", "units": {"IC50": "µM"}, "values": [{"smiles": "CCC[C@H](NC(=O)[C@@H](NC(=O)[C@@H]1CCCN1C(=O)[C@H](Cc1ccc(O)cc1)NC(=O)[C@H](CCC(=O)O)NC(=O)[C@@H](Cc1c[nH]c2ccccc12)NC(=O)[C@H](Cc1ccc(O)cc1)NC(=O)[C@@H](NC(=O)[C@H](CC(N)=O)NC(=O)[C@H](CCC(=O)O)NC(=O)[C@H](Cc1ccc(O)cc1)NC(C)=O)C(C)(C)C)c1ccccc1)C(N)=O", "note": "[Compound R3118, Ac-Y-E-N-Tbg-Y-(D-Trp)-E-Y-P-Phg-Nvl-NH2]", "IC50": "> 100"}]}, {"molecular_target": "C5 (Homo sapiens, UniProt P01031)", "assay": "Human hemolysis assay (RBC lysis assay using complete human sera)", "type": "cell-based", "set-up": "with complete human sera (Complement Technology, Tyler Tex.) and polypeptides; tissue Complement Technology, Tyler Tex; host or cells: complete human serum", "settings": "7-azatryptophan variant polypeptides of R3008; inhibition of red blood cell lysis", "units": {"IC50": "µM"}, "values": [{"smiles": "CCC[C@H](NC(=O)[C@@H]1CSCc2cccc(c2)CSC[C@H](NC(=O)[C@H](CCC)NC(C)=O)C(=O)N[C@@H](c2ccccc2)C(=O)N[C@@H]([C@@H](C)O)C(=O)N[C@@H](Cc2c[nH]c3ccccc23)C(=O)N[C@@H](Cc2nnn[nH]2)C(=O)N[C@@H](Cc2ccc(O)cc2)C(=O)N(C)[C@@H](CO)C(=O)N[C@@H](Cc2c[nH]cn2)C(=O)N1)C(N)=O", "note": "[Compound R3131, [mXylyl(2,10)]Ac-Nvl-C-Phg-T-W-Asp(T)-Y-(N-Me)S-H-C-Nvl-NH2] (Ac-[Nva]C[Phg]TW[Ala(1H-tetrazol-5-yl)]Y[NMeS]HC[Nva]-NH2; linker 2-10 via mXylylene)", "IC50": "> 100"}, {"smiles": "CCC[C@H](NC(=O)[C@@H]1CSCc2cccc(c2)CSC[C@H](NC(=O)[C@H](CCC)NC(C)=O)C(=O)N[C@@H](c2ccccc2)C(=O)N[C@@H]([C@@H](C)O)C(=O)N[C@@H](Cc2cn(C)c3ccccc23)C(=O)N[C@@H](CCC(=O)O)C(=O)N[C@@H](Cc2ccc(O)cc2)C(=O)N(C)[C@@H](CO)C(=O)N[C@@H](C)C(=O)N1)C(N)=O", "note": "[Compound R3109, [mXylyl(2,10)]Ac-Nvl-C-Phg-T-(1-Me-W)-E-Y-(N-Me)S-A-C-Nvl-NH2] (Ac-[Nva]C[Phg]T[Trp(1-Me)]EY[NMeS]AC[Nva]-NH2; linker 2-10 via mXylylene)", "IC50": "> 100"}]}, {"molecular_target": "C5 (Homo sapiens, UniProt P01031)", "assay": "Human hemolysis assay (RBC lysis assay using complete human sera)", "type": "cell-based", "set-up": "with complete human sera (Complement Technology, Tyler Tex.) and polypeptides; tissue Complement Technology, Tyler Tex; host or cells: complete human serum", "settings": "inhibition of lysis of antibody-sensitized sheep erythrocytes, complete human sera", "units": {"IC50": "µM"}, "values": [{"smiles": "CCC[C@H](NC(=O)[C@@H]1CSCc2cccc(c2)CSC[C@H](NC(=O)[C@@H](NC(=O)[C@@H](NC(=O)[C@H](CCC)NC(C)=O)[C@@H](C)O)c2ccccc2)C(=O)N[C@@H](Cc2c[nH]c3ncccc23)C(=O)N[C@@H](CCC(=O)O)C(=O)N[C@@H](Cc2ccc(O)cc2)C(=O)N(C)[C@@H](CO)C(=O)N[C@@H](C)C(=O)N1)C(N)=O", "note": "[Compound R3111, [mXylyl(4,10)]Ac-Nvl-T-Phg-C-azaTrp-E-Y-(N-Me)S-A-C-Nvl-NH2] (Ac-[Nva]T[Phg]C[Trp(7-aza)]EY[NMeS]AC[Nva]-NH2; linker 4-10 via mXylylene)", "IC50": "> 5"}, {"smiles": "CCC[C@H](NC(C)=O)C(=O)N[C@@H](CS)C(=O)N[C@@H](Cc1ccc(O)cc1)C(=O)N[C@@H](CCC(=O)O)C(=O)N[C@@H](CC(N)=O)C(=O)N[C@H](C(=O)N[C@@H](Cc1ccc(O)cc1)C(=O)N[C@@H](Cc1c[nH]c2ncccc12)C(=O)N[C@@H](CCC(=O)O)C(=O)N[C@@H](Cc1ccc(O)cc1)C(=O)N(C)CC(=O)N[C@@H](CCC)C(=O)N(C)[C@@H](CO)C(N)=O)C(C)(C)C", "note": "[Compound R3001, Ac-Nvl-C-Y-E-N-Tbg-Y-azaTrp-E-Y-(N-Me)G-Nvl-(N-Me)S-NH2] (Ac-[Nva]CYEN[Tle]Y[Trp(7-aza)]EY[Sar][Nva][NMeS]-NH2)", "IC50": 0.0672}, {"smiles": "CCC[C@H](NC(=O)[C@@H](NC(=O)[C@@H]1CCCN1C(=O)[C@H](Cc1ccc(O)cc1)NC(=O)[C@H](CCC(=O)O)NC(=O)[C@@H](Cc1c[nH]c2ccccc12)NC(=O)[C@H](Cc1ccc(O)cc1)NC(=O)[C@@H](NC(=O)[C@H](CC(N)=O)NC(=O)[C@H](CCC(=O)O)NC(=O)[C@H](Cc1ccc(O)cc1)NC(C)=O)C(C)(C)C)c1ccccc1)C(N)=O", "note": "[Compound R3118, Ac-Y-E-N-Tbg-Y-(D-Trp)-E-Y-P-Phg-Nvl-NH2]", "IC50": "> 100"}, {"smiles": "CCC[C@H](NC(=O)[C@@H]1CSCc2cccc(c2)CSC[C@H](NC(=O)[C@H](CCC)NC(C)=O)C(=O)N[C@@H](c2ccccc2)C(=O)N[C@@H]([C@@H](C)O)C(=O)N[C@@H](Cc2c[nH]c3ccccc23)C(=O)N[C@@H](CCC(=O)O)C(=O)N[C@@H](Cc2ccc(O)cc2)C(=O)N(C)[C@@H](CO)C(=O)N[C@@H](C)C(=O)N1)C(N)=O", "note": "[Compound R3091, [mXylyl(2,10)]Ac-Nvl-C-Phg-T-W-E-Y-(N-Me)S-A-C-Nvl-NH2] (Ac-[Nva]C[Phg]TWEY[NMeS]AC[Nva]-NH2; linker 2-10 via mXylylene)", "IC50": 0.483}, {"smiles": "CCC[C@H](NC(C)=O)C(=O)N[C@@H](CS)C(=O)N[C@@H](Cc1ccc(O)cc1)C(=O)N[C@@H](CC(N)=O)C(=O)N[C@@H](CC(N)=O)C(=O)N[C@H](C(=O)N[C@@H](CCC(=O)O)C(=O)N[C@@H](Cc1c[nH]c2ncccc12)C(=O)N[C@@H](CCC(=O)O)C(=O)N[C@@H](Cc1ccc(O)cc1)C(=O)N1CCC[C@H]1C(=O)N[C@H](C(=O)N[C@H](C(N)=O)C(C)(C)C)c1ccccc1)C(C)(C)C", "note": "[Compound R3004, Ac-Nvl-C-Y-N-N-Tbg-E-azaTrp-E-Y-P-Phg-Tbg-NH2] (Ac-[Nva]CYNN[Tle]E[Trp(7-aza)]EYP[Phg][Tle]-NH2)", "IC50": 0.0535}, {"smiles": "CCC[C@H](NC(C)=O)C(=O)N[C@H]1CSCc2cccc(c2)CSC[C@@H](C(=O)N2CCC[C@H]2C(=O)N[C@H](C(=O)N[C@H](C(N)=O)C(C)(C)C)c2ccccc2)NC(=O)[C@H](CCC(=O)O)NC(=O)[C@H](Cc2c[nH]c3ncccc23)NC(=O)[C@H](CCC(=O)O)NC(=O)[C@H](C(C)(C)C)NC(=O)[C@H](CC(N)=O)NC(=O)[C@H](CC(N)=O)NC(=O)[C@H](Cc2ccc(O)cc2)NC1=O", "note": "[Compound R3127, [mXylyl(2,10)]Ac-Nvl-C-Y-N-N-Tbg-E-azaTrp-E-C-P-Pha-Tbg-NH2] (Ac-[Nva]CYNN[Tle]E[Trp(7-aza)]ECP[Phg][Tle]-NH2; linker 2-10 via mXylylene)", "IC50": "> 75"}, {"smiles": "CCC[C@H](NC(=O)[C@@H]1CSCc2cccc(c2)CSC[C@H](NC(=O)[C@H](CCC)NC(C)=O)C(=O)N[C@@H](c2ccccc2)C(=O)N[C@@H]([C@@H](C)O)C(=O)N[C@@H](Cc2c[nH]c3ccccc23)C(=O)N[C@@H](Cc2nnn[nH]2)C(=O)N[C@@H](Cc2ccc(O)cc2)C(=O)N(C)[C@@H](CO)C(=O)N[C@@H](Cc2c[nH]cn2)C(=O)N1)C(N)=O", "note": "[Compound R3131, [mXylyl(2,10)]Ac-Nvl-C-Phg-T-W-Asp(T)-Y-(N-Me)S-H-C-Nvl-NH2] (Ac-[Nva]C[Phg]TW[Ala(1H-tetrazol-5-yl)]Y[NMeS]HC[Nva]-NH2; linker 2-10 via mXylylene)", "IC50": "> 100"}, {"smiles": "CCC[C@H](NC(=O)[C@@H]1CSCc2cccc(c2)CSC[C@H](NC(=O)[C@H](CCC)NC(C)=O)C(=O)N[C@@H](c2ccccc2)C(=O)N[C@@H]([C@@H](C)O)C(=O)N[C@@H](Cc2cn(C)c3ccccc23)C(=O)N[C@@H](CCC(=O)O)C(=O)N[C@@H](Cc2ccc(O)cc2)C(=O)N(C)[C@@H](CO)C(=O)N[C@@H](C)C(=O)N1)C(N)=O", "note": "[Compound R3109, [mXylyl(2,10)]Ac-Nvl-C-Phg-T-(1-Me-W)-E-Y-(N-Me)S-A-C-Nvl-NH2] (Ac-[Nva]C[Phg]T[Trp(1-Me)]EY[NMeS]AC[Nva]-NH2; linker 2-10 via mXylylene)", "IC50": "> 100"}]}]}
